Key:
[1] = Critical micellar concentration of the compound
[2] = Displacement of C32-Aib-fluorescein from HIV1 envelope glycoprotein gp41 Fe(env5.0)3 receptor by fluorescence assay; set-up: species or system Human immunodeficiency virus 1
[3] = Displacement of C27-Aib-lucifer yellow from HIV1 envelope glycoprotein gp41 Fe(env3.0)3 receptor by fluorescence assay; set-up: species or system Human immunodeficiency virus 1

| CMC [1] | Compound | other results |
| --- | --- | --- |
| 200000 µM | CCCCCCCC(=O)[O-].[Na+] [SODIUM CAPRYLATE] |  |
| 15000 µM | CCCCCCCCCCOS(=O)(=O)[O-].[Na+] [SODIUM DECYL SULFATE] |  |
| 2500 µM | CCCCCCCCCCCC(=O)[O-].[Na+] [SODIUM DODECANOATE] |  |
| 2000 µM | CCCCCCCCCCCCOS(=O)(=O)[O-].[Na+] [SODIUM LAURYL SULFATE] |  |
| < 100 µM | CCCCCCCCCCCCCCCCCCOS(=O)(=O)[O-].[Na+] [SODIUM OCTADECYL SULFATE] |  |
| 30000 µM | CCCCCCCCOS(=O)(=O)[O-].[Na+] [SODIUM OCTYL SULFATE] |  |
| 150 µM | CCCCC(CC)CCC(CC(C)C)OS(=O)(=O)[O-].[Na+] (stereo not given) [SODIUM TETRADECYL SULFATE] |  |
| 600 µM | CCCCCCCCCCCCCOS(=O)(=O)[O-].[Na+] [SODIUM TRIDECYL SULFATE] |  |

The remaining lines, values behind:

| Compound | CMC [1] | other results |
| --- | --- | --- |
| CCCCCCCCCCS(=O)(=O)[O-].[Na+] | 25000 µM |  |
| CCCCCCCCS(=O)(=O)[O-].[Na+] | > 250000 µM |  |
| CCCCCCCCCCCCCCCCS(=O)(=O)[O-].[Na+] | <= 100 uM |  |
| CCCCCCCCCCCCCCS(=O)(=O)[O-].[Na+] | 600 µM |  |
| CC[C@H](C)[C@H](NC(=O)[C@H](C)NC(=O)[C@H](CCCNC(=N)N)NC(=O)[C@H](CC(=O)O)NC(=O)[C@H](Cc1c[nH]c2ccccc12)NC(=O)[C@H](C)NC(=O)[C@H](CCC(=O)O)NC(=O)[C@H](Cc1c[nH]c2ccccc12)NC(=O)[C@@H](NC(=O)[C@@H](NC(C)=O)[C@H](C)O)[C@H](C)O)C(=O)N[C@@H](C)C(=O)N[C@@H](CCC(=O)O)C(=O)N[C@@H](Cc1ccc(O)cc1)C(=O)N[C@@H](C)C(=O)N[C@@H](C)C(=O)N[C@@H](CCCNC(=N)N)C(=O)N[C@H](C(=O)N[C@@H](CCC(=O)O)C(=O)N[C@@H](C)C(=O)N[C@@H](CC(C)C)C(=O)N[C@H](C(=O)N[C@@H](CCCNC(=N)N)C(=O)N[C@@H](C)C(=O)N[C@@H](C)C(=O)N[C@@H](CCC(N)=O)C(=O)N[C@@H](CCC(=O)O)C(=O)N[C@@H](CCC(N)=O)C(=O)N[C@@H](CCC(N)=O)C(=O)N[C@@H](CCC(=O)O)C(=O)N[C@@H](CCCCN)C(=O)N[C@@H](CC(N)=O)C(=O)N[C@@H](CS)C(N)=O)[C@@H](C)CC)[C@@H](C)CC |  | Ki [2]: 7 nM |
| CCCCCCCCCCCCS(=O)(=O)[O-].[Na+] | 5000 µM |  |
| CC[C@@H](C)[C@H](NC(=O)[C@H](CCC(=O)O)NC(=O)[C@H](CCCNC(=N)N)NC(=O)[C@H](CC(=O)O)NC(=O)[C@H](Cc1c[nH]c2ccccc12)NC(=O)[C@H](CCC(=O)O)NC(=O)C(C)(C)NC(=O)[C@H](Cc1c[nH]c2ccccc12)NC(=O)[C@@H](NC(=O)[C@@H](NC(=O)[C@H](Cc1cnc[nH]1)NC(=O)[C@H](CC(N)=O)NC(=O)[C@H](Cc1c[nH]c2ccccc12)NC(=O)C(C)(C)NC(=O)[C@H](CCC(N)=O)NC(=O)[C@H](CCC(=O)O)NC(=O)[C@H](CC(C)C)NC(=O)[C@H](CO)NC(=O)[C@H](CCCCN)NC(C)=O)[C@@H](C)O)[C@@H](C)O)C(=O)NC(C)(C)C(=O)N[C@@H](CC(N)=O)C(=O)N[C@@H](Cc1ccc(O)cc1)C(=O)N[C@H](C(=O)N[C@@H](CO)C(=O)N[C@@H](CC(C)C)C(=O)N[C@H](C(=O)N[C@@H](CS)C(N)=O)[C@@H](C)CC)[C@@H](C)O |  | Ki [3]: 1200 nM |

— ChEMBL document CHEMBL1158461, “The role of amphiphilicity and negative charge in glycoprotein 41 interactions in the hydrophobic pocket” (J Med Chem, 2009)
